Assay [1] has as its target T1, RXFP3 (Homo sapiens, UniProt Q9NSD7).
T1 construct: expressed in transfected cells; host or cells: CHO-K1 (ATCC), stably transfected
T1 sequence (Q9NSD7 1-469): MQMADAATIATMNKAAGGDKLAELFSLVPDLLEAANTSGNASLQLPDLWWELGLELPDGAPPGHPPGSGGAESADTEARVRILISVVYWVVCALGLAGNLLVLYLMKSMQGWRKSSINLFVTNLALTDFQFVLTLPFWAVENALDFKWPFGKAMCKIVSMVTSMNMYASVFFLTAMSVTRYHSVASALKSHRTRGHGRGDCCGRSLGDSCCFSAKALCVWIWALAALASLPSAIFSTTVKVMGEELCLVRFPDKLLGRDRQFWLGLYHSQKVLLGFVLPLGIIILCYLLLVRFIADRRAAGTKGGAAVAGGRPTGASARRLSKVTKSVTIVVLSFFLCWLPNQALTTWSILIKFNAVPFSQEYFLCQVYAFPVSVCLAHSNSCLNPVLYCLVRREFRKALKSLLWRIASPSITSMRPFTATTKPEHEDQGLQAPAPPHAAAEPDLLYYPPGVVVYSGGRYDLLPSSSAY
Nature of the assay: Competition binding in CHO-K1-RXFP3 cells (Eu-H3B1-22R). The conditions noted are these: CHO-K1 cells stably transfected with RXFP3; competition with 5 nM Eu-H3B1-22R; read-out: RXFP3 Binding Ki. Here is the method: (§1) Chinese hamster ovary CHO-K1 cells (sourced from American Type Culture Collection (ATCC), Maryland, USA) stably transfected with RXFP3[33] or RXFP4[9] were plated out onto precoated poly-L-lysine 96-well view plates at a density of 50 000 cells per well. Medium was aspirated off and the cells were washed with phosphate-buffered saline (PBS) before competition binding assays were performed with 5 nM Eu-H3B1–22R[34] (RXFP3 ligand) or 5 nM Eu-DTPA-mINSL5[9] (RXFP4 ligand) as previously described. Competition binding curves were performed in triplicate and each experiment was performed independently at least three times. Fluorescent measurements were carried out on a BMG POLARstar plate reader (BMG Labtech, Melbourne, Australia. Pooled data are presented as mean ± S.E of specific binding and are fitted using one-site binding curve in GraphPad Prism version 8 (GraphPad Inc., San Diego, USA). Statistical analyses were conducted using one-way analysis of variance with uncorrected Fisher’s least significant difference (LSD) post-hoc analysis in GraphPad Prism version 8.

In assay [2] the target is T1, RXFP3. Description: cAMP agonist assay (inhibition of forskolin-induced cAMP, pCRE β-galactosidase reporter) in CHO-K1-RXFP3 cells. The format is cell-based. The conditions noted are these: CHO-K1-RXFP3 cells, inhibition of 5 µM forskolin-induced cAMP, 6 hours; mean ± SEM, n in cell. The method, then:
(§2) The peptides were tested for their ability to inhibit forskolin induced cAMP activity in CHO-K1-RXFP3 or CHO-K1-RXFP4 cells transfected with a pCRE (cAMP Response Element) β-galactosidase reporter plasmid as previously described[9],[34]. For agonist assays cells were stimulated with forskolin (5 µM for RXFP3, 1 µM for RXFP4) plus or minus increasing concentrations of each peptide for 6 hours. For antagonist assays cells were stimulated with forskolin as in agonist assays plus increasing concentrations of each peptide for 10 minutes followed by stimulation with agonist at an ~EC80 concentration for a further 6 hours (10 nM Analogue 2 for RXFP3 and 16.6 nM Analogue 13 for RXFP4). Each peptide was tested in triplicate and each experiment was performed independently at least three times. Agonist data was expressed as the % Forskolin activity whereby 100% was defined as Forskolin alone and 0% as maximum agonist stimulation (1 µM Analogue 2 for RXFP3 and 1 µM Analogue 13 for RXFP4). […] Data were analysed and plotted using GraphPad PRISM 8 and are expressed as the mean ± SEM of the pooled data. Statistical analysis was conducted using one-way ANOVA with Uncorrected Fisher’s LSD post-hoc analysis in GraphPad Prism version 8.

Assay [3] concerns the target T1, RXFP3. Description: cAMP antagonist assay against 10 nM analogue 2 in CHO-K1-RXFP3 cells. To be noted: for IC50: CHO-K1-RXFP3 cells; for Emax: SEM, read-out: RXFP3 Emax (antagonist efficacy). The format is cell-based. Here is the method:
as §2

Assay [4] addresses T2, RXFP4 (Homo sapiens, UniProt Q8TDU9). Nature of the assay: Competition binding in CHO-K1-RXFP4 cells (Eu-DTPA-mINSL5). More on the design: expressed in transfected cells; host or cells: CHO-K1 (ATCC), stably transfected. To be noted: CHO-K1 cells stably transfected with RXFP4; competition with 5 nM Eu-DTPA-mINSL5; read-out: RXFP4 Binding Ki. Here is the method: as §1
The target of assay [5] is T2, RXFP4. Description: cAMP agonist assay (inhibition of forskolin-induced cAMP, pCRE β-galactosidase reporter) in CHO-K1-RXFP4 cells. To be noted: CHO-K1-RXFP4 cells, inhibition of 1 µM forskolin-induced cAMP, 6 hours; mean ± SEM, n in cell. More on the design: expressed in transfected cells; host or cells: CHO-K1 (ATCC), stably transfected. The class given is cell-based. Here is the method: as §2

In assay [6] the target is T2, RXFP4. Description: cAMP antagonist assay against 16.6 nM analogue 13 in CHO-K1-RXFP4 cells. More on the design: expressed in transfected cells; host or cells: CHO-K1 (ATCC), stably transfected. The conditions noted are these: for Emax: SEM, read-out: RXFP4 Emax (antagonist efficacy). The format is cell-based. Here is the method: as §2

Molecules are shown by their SMILES. Read-outs that look alike come from different tables or passages of the source. Bridge positions count the residues as written; N and C are the ends. Peptide text beside a SMILES is read from it. I, II: the chains in the order shown.

For orientation: Ki means the dissociation constant of the complex between target and ligand, obtained from inhibition or displacement. As a reminder, the Emax is the maximal effect, on the per cent scale that the assay sets.

T2 sequence (Q8TDU9 whole entry): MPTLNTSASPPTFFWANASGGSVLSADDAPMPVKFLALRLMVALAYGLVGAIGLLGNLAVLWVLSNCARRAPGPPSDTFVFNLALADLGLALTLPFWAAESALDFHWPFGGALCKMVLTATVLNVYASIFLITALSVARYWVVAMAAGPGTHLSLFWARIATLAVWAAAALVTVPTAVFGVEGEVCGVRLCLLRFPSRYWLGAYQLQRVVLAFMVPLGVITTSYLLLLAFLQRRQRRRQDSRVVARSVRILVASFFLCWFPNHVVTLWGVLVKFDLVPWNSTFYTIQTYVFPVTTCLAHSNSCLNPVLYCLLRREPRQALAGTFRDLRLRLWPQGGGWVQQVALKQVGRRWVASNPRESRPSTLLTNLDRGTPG

In the case of `CC[C@H](C)[C@@H]1NC(=O)[C@H](Cc2ccccc2)NC(=O)[C@H](CCC(=O)O)NC(=O)[C@H](CC(C)C)NC(=O)CNC(=O)[C@@H](NC(=O)[C@H](CC(C)C)NC(=O)[C@H](CCCNC(=N)N)NC(=O)[C@@H](NC(=O)CNC(=O)[C@H](Cc2ccc(O)cc2)NC(=O)[C@@H]2CCCN2C(=O)[C@H](C)NC(=O)[C@H](C)NC(=O)[C@@H](N)CCCNC(=N)N)C(C)C)CSSC[C@@H]2NC(=O)[C@@H](NC(=O)[C@H](CC(C)C)NC(=O)[C@@H](NC(=O)[C@H](CCC(N)=O)NC(=O)[C@H](CC(C)C)NC(=O)[C@H](CC(=O)O)NC(=O)[C@@H]3CCC(=O)N3)[C@@H](C)O)CSSC[C@H](NC(=O)CNC(=O)[C@H](CC(=O)O)NC(=O)[C@H]([C@@H](C)O)NC2=O)C(=O)N[C@@H](CO)C(=O)N[C@@H](CCSC)C(=O)N[C@@H]([C@@H](C)O)C(=O)N[C@@H](CC(=O)O)C(=O)N[C@@H](CC(C)C)C(=O)N[C@@H](CO)C(=O)N[C@@H](C)C(=O)N[C@@H](CC(C)C)C(=O)N[C@H](C(=O)O)CSSC[C@@H](C(=O)N[C@@H](CCCNC(=N)N)C(=O)O)NC(=O)[C@H]([C@@H](C)O)NC(=O)[C@H](Cc2ccccc2)NC(=O)[C@H]([C@@H](C)CC)NC(=O)[C@H](C(C)C)NC(=O)[C@H](C)NC(=O)[C@H](CCCNC(=N)N)NC1=O` [Analogue 14], the Ki at RXFP3 [1] and on RXFP4 [4] was 0.024 µM throughout. In addition, at RXFP3 [2], the “RXFP3 Activity pEC50” value was “No activity (3)”. Also, the IC50 at RXFP3 [3] (block of 10 nM analogue 2, read-out: RXFP3 Antagonist potency IC50) amounted to 0.263 µM; at RXFP4 [6] (CHO-K1-RXFP4 cells, block of 16.6 nM analogue 13, read-out: RXFP4 Antagonist potency IC50), 0.331 µM. Further, the Emax at RXFP3 [3] was 66.5 ± 14.8%; on RXFP4 [6], 37.3 ± 7.6%. For the same compound, at RXFP4 [5], the “RXFP4 Activity pEC50” value is “Weak partial agonist (6)”.

Regarding `CC[C@H](C)[C@@H]1NC(=O)[C@H](Cc2ccccc2)NC(=O)[C@H](CCC(=O)O)NC(=O)[C@H](CCCNC(=N)N)NC(=O)CNC(=O)[C@@H](NC(=O)[C@H](CC(C)C)NC(=O)[C@H](CCCNC(=N)N)NC(=O)[C@@H](NC(=O)CNC(=O)[C@H](Cc2ccc(O)cc2)NC(=O)[C@@H]2CCCN2C(=O)[C@H](C)NC(=O)[C@H](C)NC(=O)[C@@H](N)CCCNC(=N)N)C(C)C)CSSC[C@H](N)C(=O)N[C@@H]([C@@H](C)O)C(=O)N[C@@H](CC(=O)O)C(=O)NCC(=O)N[C@@H](C)C(=O)N[C@@H](CO)C(=O)N[C@@H](CCSC)C(=O)N[C@@H](CCCCN)C(=O)N[C@@H](CC(=O)O)C(=O)N[C@@H](CC(C)C)C(=O)N[C@@H](CO)C(=O)N[C@@H](C)C(=O)N[C@@H](CC(C)C)C(=O)N[C@H](C(=O)O)CSSC[C@@H](C(=O)N[C@@H](CCCNC(=N)N)C(=O)O)NC(=O)[C@H]([C@@H](C)O)NC(=O)[C@H](Cc2ccccc2)NC(=O)[C@H]([C@@H](C)CC)NC(=O)[C@H](C(C)C)NC(=O)[C@H](C)NC(=O)[C@H](CCCNC(=N)N)NC1=O` [Analogue 15] (I: H-RAAPYGVRLCGREFIRAVIFTCR-OH / II: H-CTDGASMKDLSALC-OH; disulfide I:10-II:1, I:22-II:14), the Ki at RXFP3 [1] came to 0.0155 µM; at RXFP4 [4] it was 0.0229 µM. At RXFP3 [2], the “RXFP3 Activity pEC50” value was “No activity (4)”. In addition, at RXFP3 [3] (peptide 10 minutes, then 10 nM analogue 2 for 6 hours, 5 µM forskolin, mean ± SEM, read-out: RXFP3 Antagonist potency pIC50 (converted)), the IC50 was greater than 10 µM. The values for the Emax on RXFP3 [3] and on RXFP4 [6] were 43.5 ± 12.1% and 49.4 ± 6.2%, respectively. Besides, on RXFP4 [5], the “RXFP4 Activity pEC50” value was “Weak partial agonist (5)”.
